The term EC50 denotes the midpoint of the concentration-response curve. Low values mean greater potency, high ones weaker potency.

For this assay, the target named is Glycogen synthase kinase-3 beta (Homo sapiens, UniProt P49841). In words: concentration-response blocking of human GSK3B – biochemical, luminescence, cell-free homogeneous, retest, dose response (AID 434954).
Glycogen synthase kinase-3 beta, sequence (P49841 whole entry): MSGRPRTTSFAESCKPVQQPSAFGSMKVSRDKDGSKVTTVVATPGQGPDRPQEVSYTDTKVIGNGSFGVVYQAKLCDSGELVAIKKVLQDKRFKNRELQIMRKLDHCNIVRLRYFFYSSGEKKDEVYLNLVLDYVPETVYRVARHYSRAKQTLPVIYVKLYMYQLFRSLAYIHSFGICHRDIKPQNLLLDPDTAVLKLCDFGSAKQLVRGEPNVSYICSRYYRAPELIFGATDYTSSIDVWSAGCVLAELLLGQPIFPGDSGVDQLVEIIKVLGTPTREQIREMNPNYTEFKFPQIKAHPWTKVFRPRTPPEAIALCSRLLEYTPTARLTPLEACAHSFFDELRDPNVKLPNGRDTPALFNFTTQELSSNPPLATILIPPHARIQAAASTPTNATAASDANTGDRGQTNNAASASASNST
The molecule `COCCn1c(SCC(=O)NC(=O)NC(C)C)nc2ccccc21` [2-[1-(2-methoxyethyl)benzimidazol-2-yl]sulfanyl-N-(propan-2-ylcarbamoyl)ethanamide] came in with an EC50 of over 300 µM.
Consider `CC(C)CC(=O)Nc1ncc([N+](=O)[O-])s1` [MLS001043214], for which the EC50 came to 4.86 µM.
`Cc1ccc(-c2nnc3ccc(SC(C)C(=O)O)nn23)cc1` (stereo not drawn) [2-[[3-(4-methylphenyl)-[1,2,4]triazolo[4,3-b]pyridazin-6-yl]sulfanyl]propanoic acid] registered a concentration giving a half-maximal response (EC50) of 34.2 µM.
The molecule `Oc1ccc(CNCC2COc3ccccc3O2)cc1` (stereo not drawn) [SMR000145120] displayed a 50% effective concentration (EC50) of over 300 µM.
To `O=C(OCCCCOC(=O)c1ccccc1)c1ccccc1` [SMR000459786] belongs over 300 µM; to `COc1cccc(NC(=O)CN(C)C(=O)c2cc(-c3ccc(F)cc3)nc3ccccc23)c1`, over 300 µM.
In the case of `CCOC(=O)C1C(C)=Nc2ncnn2C1c1c[nH]c2ccccc12` (stereo not drawn) [MLS000089006] it was 4.64 µM.
To `NS(=O)(=O)c1ccc(N/N=C2\C(=O)Nc3ccc(Br)cc32)cc1` [SMR000592222] belongs over 300 µM.
Molecule `NC(=O)C1CCN(c2nc3c(S(=O)(=O)c4ccccc4)nnn3c3ccccc23)CC1` [SMR000629006] displayed an EC50 of over 300 µM.
To `CCn1c(SCc2c(F)cccc2Cl)nnc1-c1ccco1` [3-[(2-chloro-6-fluorophenyl)methylsulfanyl]-4-ethyl-5-(furan-2-yl)-1,2,4-triazole] belongs over 300 µM; to `O=[N+]([O-])c1cc([N+](=O)[O-])c(N2CCCCCC2)cc1NCCO`, 5.63 µM; to `CC(=O)c1cccc(S(=O)(=O)NC2CCSc3ccccc32)c1` (stereo not drawn), over 300 µM.
`O=C(CCSCCc1ccccn1)Nc1ccc(Br)cn1` [N-(5-bromopyridin-2-yl)-3-(2-pyridin-2-ylethylsulfanyl)propanamide]: the EC50 came out at 39.3 µM.
In the case of `COCCOc1ccc(C(F)(F)F)cc1NC(=O)COC(=O)c1cc[n+]([O-])cc1` [[2-[2-(2-methoxyethoxy)-5-(trifluoromethyl)anilino]-2-oxoethyl] 1-oxidopyridin-1-ium-4-carboxylate], the half-maximal effective concentration (EC50) was over 300 µM.
In the case of `O=C(NCc1ccccn1)c1ccc(Cn2cc(Br)cn2)o1` [SMR000073000] it was over 300 µM.
In the case of `COC(=O)c1ccc2nc(NC(=O)C3CC3)sc2c1` [2-(cyclopropanecarbonylamino)-1,3-benzothiazole-6-carboxylic acid methyl ester] it was over 300 µM; in that of `COC(=O)c1ccc(O)cc1`, over 300 µM.
Take `CC1=NC(=O)NC(c2ccccc2OC(F)F)C1C(=O)OCc1ccccc1` (stereo not drawn): the EC50 stood at 4.4 µM.
Consider `COc1ccc(Nc2nc(N)nc(CSc3nncn3C)n2)cc1` [N-(4-methoxyphenyl)-6-{[(4-methyl-4H-1,2,4-triazol-3-yl)thio]methyl}-1,3,5-triazine-2,4-diamine], for which the concentration for a half-maximal effect (EC50) worked out at 41.3 µM.
To `O=[N+]([O-])c1cc(Cl)ccc1N1CCCC1` [SMR000284754] belongs over 300 µM.
In the case of `CS(=O)(=O)N(CCc1ccccc1)CC(=O)N1CCN(c2ccccc2F)CC1` it was over 300 µM; in that of `Cc1cccc(Nc2ccccc2C(=O)O)c1C`, over 300 µM.
To `CC1(C)CC(=O)C=C(Nc2ccc(Br)cn2)C1` [3-[(5-bromopyridin-2-yl)amino]-5,5-dimethylcyclohex-2-en-1-one] belongs over 300 µM; to `COc1ccc(NC(=O)c2ccc(-c3ccc(OC)cc3)s2)cc1` [SMR000335035], over 300 µM; to `N#CCCn1cc(C(CC(=O)c2ccccc2)C(=O)O)c2ccccc21` (stereo not drawn) [MLS000049352], over 300 µM.
The molecule `Clc1ccccc1CN1CCN(c2cccc3[nH]ccc23)CC1` [4-[4-[(2-chlorophenyl)methyl]piperazin-1-yl]-1H-indole] showed an EC50 of over 300 µM.
`CC1(C)CC(=O)C=C(Nc2cc(-c3ccccc3)n[nH]2)C1` came in with a 50% effective concentration (EC50) of 12.9 µM.
Consider `COc1cccc(C(=O)CSc2nccn2C)c1` [1-(3-Methoxy-phenyl)-2-(1-methyl-1H-imidazol-2-ylsulfanyl)-ethanone], for which the concentration for a half-maximal effect (EC50) was over 300 µM.

(Values after BindingDB's records for doi:10.7270/Q2TX3CTT (Broad Institute, 2010).)
